“Also recorded” adds a separate entry of the source.
How the values were obtained:
Assay type in all cases: in vivo, human
[1] = Safety and tolerability in the multiple escalating dose study in healthy subjects
Procedure: Adverse events (AEs) were monitored throughout the duration of the study.
To monitor for possible AEs, vital signs, hematology and clinical chemistry laboratory parameters, ECG readings, neurological examination findings, and EEG parameters and abnormal findings were recorded at each visit.

[2] = Example 3 Part A: oral suspension administered at 4 p.m. vs 8 p.m., plasma pharmacokinetics; details: for AUCinf / Cmax / AUC(0-inf) / Tmax / half-life: human, in vivo; for AUCinf / Cmax / AUC(0-inf) / Tmax: po; for AUC(0-inf): AUCinf
Procedure: (§1) Patients with severe major depressive disorder (MDD) aged 18 to 65 years were treated with an oral suspension or tablet of Compound 1 to study the effect of food and time of administration on the pharmacokinetics, as well as the safety and tolerability of these formulations.
Part A is an open-label, non-randomized, fixed-sequence crossover design to evaluate Compound 1 at 2 different administration times (4 p.m., approximately 4 hours after lunch and 2 hours prior to dinner, and at 8 p.m., approximately 4 hours after dinner). 16 participants were administered an oral suspension of Compound 1.
(§2) Preliminary pharmacokinetics data from Part A, where 45 mg and 60 mg of oral suspension were administered (Cohort 1), and Part C, where 40 mg (2×20 mg), 60 mg (3×20 mg) and 80 mg (4×20 mg) of the tablet formulation were administered, have been analyzed and are summarized below.

[3] = Safety and tolerability in MDD patients (Part A); details: 80 mg once daily for 14 days in MDD patients
Procedure: In Part A, participants were administered daily doses of Compound 1 (45 mg Cohort and 80 mg Cohort) at 4 p.m. on Day 1 and qHS on all other study days for 7 days inpatient followed by 7 days outpatient (with subsequent Cohorts receiving up to 120 mg qHS). Participants checked into the clinic on Day 1. During this period the following assessments were performed: adverse event assessments, vital signs, physical examinations, blood and urine samples for safety assessments, ECGs, C-SSRS assessments, blood samples for PK, and efficacy assessments (HAM-D, MADRS, HAM-A, CGI [CGI-S and CGI-I], PSQI, and SDQ). Baseline assessments occurred on Day 1 prior to administration of study drug. On Day 8, prior to discharge, participants were supplied with sufficient Compound 1 to complete 7 days of dosing.

[4] = Example 3 Part C: tablet single ascending doses, morning fasted vs 8 p.m., plasma pharmacokinetics; details: for half-life: Mean (SD); for AUC(0-inf): AUCinf
Procedure: as §1
Part C is a randomized, participant- and Investigator-blinded, Sponsor-unblinded, placebo-controlled, parallel-group design to evaluate the pharmacokinetics and safety of single ascending doses of a Compound 1 citrate tablet. One cohort of 16 participants was planned, with 12 participants receiving Compound 1 and 4 participants receiving placebo. Part C also evaluated administration of a single dose level at 8 p.m., both 2 hours and 4 hours after dinner.
as §2
A tablet comprising Compound 1 was administered as single ascending doses of 40 mg, 60 mg and 80 mg under fasted conditions in the morning (FIG. 5). The 60 mg dosage was administered on two additional occasions at 8 p.m., once 4 hours after dinner and once 2 hours after dinner (FIG. 6).

[5] = Cohorts 1-3, 15-60 mg QD for 14 days
[6] = oral suspension 45 mg and 60 mg

COC[C@@]1(O)CC[C@@]2(C)[C@@H](CC[C@@H]3[C@@H]2CC[C@]2(C)[C@@H](C(=O)Cn4ccnc4)CC[C@@H]32)C1 [Compound 1, 3α-Hydroxy-3β-methoxymethyl-21-(1′-imidazolyl)-5α-pregnan-20-one]
Serious Adverse Events [1, 5]: no Serious Adverse Events | vital sign, ECG, or lab abnormalities [1, 5]: no clinically relevant vital sign, ECG, or lab abnormalities | maximum tolerated dose and serious adverse events ([1]; MAD study, after a dose of 60 mg, beta power increase up to 2.8-fold): without achieving a maximum tolerated dose (MTD) or demonstrating any serious adverse events (SAEs) | AUCinf ([2]; 45 mg): 1880 ng·h/mL | Cmax ([2]; 45 mg): 157 ng/mL | AUC(0-inf) ([2]; 45 mg): 1800 ng·h/mL | Cmax ([2]; 45 mg, Cmax): 207 ng/mL | Tmax ([2]; 45 mg): 1.5 h | AUCinf ([2]; 60 mg): 2930 ng·h/mL | Cmax ([2]; 60 mg): 249 ng/mL | AUC(0-inf) ([2]; 60 mg): 2800 ng·h/mL | Cmax ([2]; 60 mg, Cmax): 282 ng/mL | Tmax ([2]; 60 mg): 1.5 h | half-life ([2]; oral suspension 45 mg and 60 mg, 4 p.m. and 8 p.m., range, read-out: Mean t1/2): 11.1 to 12.6 h | half-life ([2]; oral suspension 60 mg 4 PM (4 h after lunch, 2 h before dinner), N = 15, Mean, read-out: t1/2 (converted)): 12 h | t1/2 ([2]; oral suspension 45 mg 4 PM (4 h after lunch, 2 h before dinner), N = 16, Mean): 12.6 h | t1/2 ([2]; oral suspension 45 mg 8 PM (4 h after dinner), N = 15, Mean): 11.3 h | Cmax at 8 p.m. as compared to 4 p.m. [2, 6]: reduced | tmax at 8 p.m. as compared to 4 p.m. [2, 6]: delayed | AUCinf between the 2 administration times ([2]; oral suspension 45 mg and 60 mg, 4 p.m. vs 8 p.m.): comparable | t1/2 ([2]; oral suspension 60 mg 8 PM (4 h after dinner), N = 15, Mean): 11.1 h | first post-dose timepoint with appearance of concentrations ([2]; suspension at 4 p.m. or 8 p.m.): 0.25 h | last evaluated timepoint at which concentrations remained detectable ([2]; suspension at 4 p.m. or 8 p.m.): 72 h | mean concentrations following administration at 4 p.m. as compared to 8 p.m. ([2]; within the first 2 to 3 hours, 45 mg and 60 mg): higher | tolerability [3]: well tolerated with no change in Adverse Event profile; also recorded: well-tolerated | Tmax ([4]; human, in vivo, 40 mg): 1.5 h | half-life ([4]; human, in vivo, 40 mg, 9 a.m. administration (fasted), N = 13): 11.9 h | AUC(0-inf) ([4]; human, in vivo, 40 mg): 1390 ng·h/mL | Cmax ([4]; human, in vivo, 40 mg): 181 ng/mL | Tmax ([4]; human, in vivo, 60 mg): 2.5 h | tmax ([4]; human, in vivo, 60 mg): 2.5 (1.0, 3.0) h | half-life ([4]; human, in vivo, 60 mg, 8 p.m. administration (60 mg), 2 h after dinner, N = 12): 9.6 h | half-life ([4]; human, in vivo, 60 mg, 8 p.m. administration (60 mg), 4 h after dinner, N = 11): 11.4 h | half-life ([4]; human, in vivo, 60 mg, 9 a.m. administration (fasted), N = 12): 11.5 h | AUC(0-inf) ([4]; human, in vivo, 60 mg): 2610 ng·h/mL | Cmax ([4]; human, in vivo, 60 mg): 408 ng/mL | half-life ([4]; human, in vivo, 80 mg, 9 a.m. administration (fasted), N = 12): 11.4 h | AUC(0-inf) ([4]; human, in vivo, 80 mg): 3980 ng·h/mL | Cmax ([4]; human, in vivo, 80 mg): 546 ng/mL | dose proportionality of exposure ([4]; tablet, fasted, between 60 mg and 80 mg): closer to dose-proportional | increase in exposure over a 2-fold increase in dose ([4]; tablet, fasted, from 40 mg to 80 mg): ~3 fold
